Laboratory results taken from ChEMBL document CHEMBL2046398, “Optimization of (2,3-dihydro-1-benzofuran-3-yl)acetic acids: discovery of a non-free fatty acid-like, highly bioavailable G protein-coupled receptor 40/free fatty acid receptor 1 agonist as a glucose-dependent insulinotropic agent” (J Med Chem, 2012).

Legend:
Conditions in all cases: in vivo; call rule not given here
Rattus norvegicus [1] = species on record: Rattus norvegicus; test: Drug metabolism in rat assessed as acyl glucuronide derivative formation in bile; type: ADME, organism-based
Canis familiaris [2] = species on record: Canis familiaris; test: Drug metabolism in dog assessed as biphenylylcarboxylic acid derivative formation measured in feces; type: ADME, organism-based, Canis lupus familiaris
Rattus norvegicus [3] = species on record: Rattus norvegicus; test: Drug metabolism in rat assessed as taurine conjugate formation measured in feces; type: ADME, organism-based
Rattus norvegicus [4] = species on record: Rattus norvegicus; test: Drug metabolism in rat assessed as taurine conjugate formation measured in bile; type: ADME, organism-based
Canis familiaris [5] = species on record: Canis familiaris; test: Drug metabolism in dog assessed as acyl glucuronide derivative formation measured in feces; type: ADME, organism-based, Canis lupus familiaris
Canis familiaris [6] = species on record: Canis familiaris; test: Drug metabolism in dog assessed as beta-oxidation derivative formation; type: ADME, organism-based, Canis lupus familiaris
Rattus norvegicus [7] = species on record: Rattus norvegicus; test: Drug metabolism in rat assessed as biphenylylcarboxylic acid derivative formation; type: ADME, organism-based
Rattus norvegicus [8] = species on record: Rattus norvegicus; test: Drug metabolism in rat assessed as acyl glucuronide derivative formation measured in feces; type: ADME, organism-based
Rattus norvegicus [9] = species on record: Rattus norvegicus; test: Drug metabolism in rat assessed as biphenylylcarboxylic acid derivative formation in feces; type: ADME, organism-based
Rattus norvegicus [10] = species on record: Rattus norvegicus; test: Drug metabolism in rat assessed as beta-oxidation derivative formation; type: ADME, organism-based
Canis familiaris [11] = species on record: Canis familiaris; test: Drug metabolism in dog assessed as taurine conjugate formation measured in feces; type: ADME, organism-based, Canis lupus familiaris

## Cc1cc(OCCCS(C)(=O)=O)cc(C)c1-c1cccc([14CH2]Oc2ccc3c(c2)OC[C@H]3CC(=O)O)c1
Rattus norvegicus [1]
  Drug metabolism: Active
Canis familiaris [2]
  Drug metabolism: Active
Rattus norvegicus [3]
  Drug metabolism: Active
Rattus norvegicus [4]
  Drug metabolism: Active
Canis familiaris [5]
  Drug metabolism: Active
Canis familiaris [6]
  Drug metabolism: Not Active
Rattus norvegicus [7]
  Drug metabolism: Active
Rattus norvegicus [8]
  Drug metabolism: Active
Rattus norvegicus [9]
  Drug metabolism: Active
Rattus norvegicus [10]
  Drug metabolism: Not Active
Canis familiaris [11]
  Drug metabolism: Active
